In PubChem BioAssay (NCI):
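Where inhibition never reached the appropriate level, the endpoint shown equals the highest concentration tested. Otherwise, values were interpolated linearly from a five-concentration, 48-hour dose response in 96-well plates. The concentration for full growth arrest is given as TGI.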

What was measured:
Test in all cases: NCI-60 cell line screen, 48 h
OVCAR-5 ovarian = tested on: OVCAR-5 ovarian
OVCAR-4 ovarian = tested on: OVCAR-4 ovarian
COLO 205 colon = tested on: COLO 205 colon
786-0 renal = tested on: 786-0 renal
MDA-MB-231 breast = tested on: MDA-MB-231 breast
HCT-15 colon = tested on: HCT-15 colon
TK-10 renal = tested on: TK-10 renal
PC-3 prostate = tested on: PC-3 prostate
DU-145 prostate = tested on: DU-145 prostate
MCF7 breast = tested on: MCF7 breast
SF-268 CNS = tested on: SF-268 CNS
LOX IMVI melanoma = tested on: LOX IMVI melanoma
UACC-62 melanoma = tested on: UACC-62 melanoma
A498 renal = tested on: A498 renal

Compound | TGI (OVCAR-5 ovarian) | TGI (OVCAR-4 ovarian) | TGI (COLO 205 colon) | TGI (786-0 renal) | TGI (MDA-MB-231 breast) | TGI (HCT-15 colon) | TGI (TK-10 renal) | TGI (PC-3 prostate) | TGI (DU-145 prostate) | TGI (MCF7 breast) | TGI (SF-268 CNS) | TGI (LOX IMVI melanoma) | TGI (UACC-62 melanoma) | TGI (A498 renal)
CCOC(=O)/C=C(/C(=O)OCC)n1ccc(=O)n(Cc2cn(COCCOC(C)=O)nn2)c1=O | 35.2 µM | 42.7 µM | > 100 µM | > 100 µM | 67.9 µM | 55.6 µM | 32 µM | > 100 µM | > 100 µM | 28.3 µM | 33.5 µM | 41.9 µM | 36.7 µM | 56.1 µM
COc1ccc2ccccc2c1/C=C/C(=O)c1ccccc1 | 22 µM | 9.4 µM | 9.76 µM | 11.9 µM | 7.31 µM | > 35.8 µM | 7.45 µM | 13.9 µM | 8.89 µM | 18.6 µM | 17.9 µM | 10.9 µM | 9.35 µM | 10.9 µM
O=C(c1ccc(N=Cc2ccccc2O)cc1)c1ccc(N=Cc2ccccc2O)cc1 | > 100 µM | > 100 µM | > 100 µM | > 100 µM | > 100 µM | > 100 µM | > 100 µM | > 100 µM | > 100 µM | > 100 µM | > 100 µM | > 100 µM | > 100 µM | > 100 µM
CCOc1cn(C2CC(O)C(CO)O2)c(=O)[nH]c1=O (configuration not stated) | > 100 µM | > 100 µM | > 100 µM | > 100 µM | > 100 µM | > 100 µM | > 100 µM | > 100 µM | > 100 µM | > 100 µM | > 100 µM | > 100 µM | > 100 µM | > 100 µM
COC1=C(OC)C(=O)C(Cc2c(C)nc3sc(C)cn23)=C(C)C1=O | 40.7 µM | 23.1 µM | 36 µM | 39.4 µM | 30.2 µM | 96.4 µM | 35.6 µM | 68.3 µM | 48 µM | 59.9 µM | 35.7 µM | 39.4 µM | 27.4 µM | > 100 µM
O=C1/C(=C/c2ccc([N+](=O)[O-])cc2)C(=O)N(c2ccccc2)C1c1ccccc1 (configuration not stated) | > 10 µM | > 10 µM | > 10 µM | > 10 µM | > 10 µM | > 10 µM | > 10 µM | > 10 µM | > 10 µM | > 10 µM | > 10 µM | > 10 µM | > 10 µM | > 10 µM
CC1=NNC(N)=N/C1=C\C(Sc1ccc(Cl)cc1)c1ccc([N+](=O)[O-])cc1 (configuration not stated) | > 100 µM | > 100 µM | > 100 µM | > 100 µM | > 100 µM | > 100 µM | > 100 µM | > 100 µM | > 100 µM | > 100 µM | > 100 µM | > 100 µM | > 100 µM | > 100 µM
O=Cc1ccc(OCc2cccc(COc3ccc(/C=N\Nc4ccc([N+](=O)[O-])cc4[N+](=O)[O-])cc3)n2)cc1 | > 100 µM | > 100 µM | > 100 µM | > 100 µM | > 100 µM | > 100 µM | > 100 µM | > 100 µM | > 100 µM | > 100 µM | > 100 µM | > 100 µM | > 100 µM | > 100 µM
O=C(NI1OC(=O)c2ccccc21)c1ccc(Cl)cc1 | > 100 µM | > 100 µM | > 100 µM | > 100 µM | > 100 µM | > 100 µM | > 100 µM | > 100 µM | > 100 µM | > 100 µM | > 100 µM | > 100 µM | > 100 µM | > 100 µM
CSc1ncnc2c1ncn2C1CC(Oc2ccc(C)cc2)C(COc2ccc(C)cc2)O1 (configuration not stated) | > 100 µM | > 100 µM | > 100 µM | > 100 µM | > 100 µM | > 100 µM | > 100 µM | > 100 µM | > 100 µM | > 100 µM | > 100 µM | > 100 µM | > 100 µM | > 100 µM
CC(=O)OC(/C=C/c1ccccc1)=C(OC(C)C)/C1=C(\c2ccccc2)SCCCSC1=O | > 100 µM | > 100 µM | > 100 µM | > 100 µM | > 100 µM | > 100 µM | > 100 µM | > 100 µM | > 100 µM | > 100 µM | > 100 µM | > 100 µM | > 100 µM | > 100 µM
Oc1c(CN2CCOCC2)ccc2cccnc12 | > 10 µM | > 10 µM | > 10 µM | > 10 µM | > 10 µM | > 10 µM | > 10 µM | > 10 µM | > 10 µM | > 10 µM | > 10 µM | > 10 µM | – | > 10 µM
